Consider 17 compounds from patent publication US20230233533A1, “COMPOSITIONS, METHODS OF TREATING AND PREVENTING FUNGAL INFECTIONS, AND METHODS OF INHIBITING PRP8 INTEIN EXPRESSION” (Health Research, Inc., priority 2020, published 2023).

In general, CC50 refers to the concentration giving 50% cytotoxicity. In general, IC50 refers to the midpoint of a concentration-inhibition curve. A lower IC50 goes with inhibition by little substance. By MIC is commonly meant the lowest concentration found to suppress growth.

One series is described as follows: in vitro. In kind it is cell-based, human. As to conditions: human, CC50 A549. As to the method:
Cytotoxicity—Cytotoxicity assays were carried out using human lung carcinoma cell line A549, as described (Chen et al., “Selective Inhibition of the West Nile Virus Methyltransferase by Nucleoside Analogs,” Antiviral Research 97(3):232-239 (2013), which is hereby incorporated by reference in its entirety). Briefly, the A549 cells (5×10^3) were incubated with/without compounds in a 96-well plate at 37° C. for 48 h. Cell viability was determined using the MTT assay (ATCC) as was described previously (Chen et al., “Selective Inhibition of the West Nile Virus Methyltransferase by Nucleoside Analogs,” Antiviral Research 97(3):232-239 (2013) and Brecher et al., “Identification and Characterization of Novel Broad-Spectrum Inhibitors of the Flavivirus Methyltransferase,” ACS Infectious Diseases 1(8):340-349 (2015), both of which are hereby incorporated by reference in their entirety). N=3.
Cytotoxicity—Cytotoxicity assays were carried out using human lung carcinoma cell line A549, as described. Chen et al., “Selective Inhibition of the West Nile Virus Methyltransferase by Nucleoside Analogs,” Antiviral Res. 97:232-9 (2013), which is hereby incorporated by reference in its entirety. Briefly, the A549 cells (5×10^3) were incubated with/without compounds in a 96-well plate at 37° C. for 48 h. Cell viability was determined using the MTT assay (ATCC) as was described previously (Chen et al., “Selective Inhibition of the West Nile Virus Methyltransferase by Nucleoside Analogs,” Antiviral Research 97(3):232-239 (2013) and Brecher et al., “Identification and Characterization of Novel Broad-Spectrum Inhibitors of the Flavivirus Methyltransferase,” ACS Infectious Diseases 1(8):340-349 (2015), both of which are hereby incorporated by reference in their entirety). N=3.

For series [1], the target named is T1, Prp8 intein (Cryptococcus gattii, UniProt E6R027). Nature of the series: Split GFP-Prp8i intein splicing assay. Type of series: biochemical. As to conditions: split GFP-Prp8 intein splicing. The procedure: Cloning, expression and purfication—The split GFP-Prp8i was constructed using a mega-PCR mutagenesis approach. […] After digestion with Dpn I restriction enzyme, the PCR product was transformed into DH5α Escherichia coli. Clones were verified by plasmid DNA sequencing. The expression, refolding and purification of the GFP-Prp8i fusion protein were carried out as described previously.
[…] Then 100 μl 2×TCEP was added to a final concentration of 20 μM. The reactions were incubated at 25° C. overnight. […] Two readings were taken, one prior to addition of TCEP (I0) and one after incubation overnight with TCEP (If). Fluorescence/luminescence differences (ΔFluorescence or ΔLuminescence) were defined as If−I0 for each well. […] DMF control served as 100% splicing activity.
Split GFP-Prp8 and CJGFP-Prp8 intein splicing assays—Using black and clear bottom 96-well plates, the DPNB-treated, -refolded and -concentrated GFP-Prp8 or CfGFP-Prp8 fusion protein (0.5 μM) was incubated with compounds or Dimethylsulfoxide (DMSO) solvent control for 30 min at 25° C. in a 100 μl intein splicing buffer (20 mM Bis-tris propane, 0.5 M NaCl, 0.5 M arginine, 1 mM EDTA, and 0.05% CHAPS). Then 100 μl 2×TCEP was added to a final concentration of 20 μM. The reactions were incubated at 25° C. overnight. […] Two readings were taken, one prior to addition of TCEP (I0) and one after incubation overnight with TCEP (If). Fluorescence/luminescence differences (ΔFluorescence or ΔLuminescence) were defined as If−I0 for each well. […] DMSO control served as 100% splicing activity.

The next series concerns C. neoformans H99 strain. Nature of the series: Fungal susceptibility test, broth microdilution MIC. Type of series: cell-based, Cryptococcus neoformans. As to conditions: Cryptococcus neoformans, H99STRAIN; C. neoformans H99, microbroth dilution; read-out: MIC H99. The procedure:
Fungal susceptibility test—The fungal susceptibility test was carried out with a compound concentration series as described. […] The broth microdilution method was used to determine the compound MIC values against C. neoformans.
Fungal susceptibility test—The fungal susceptibility test was carried out with a compound concentration series as described. […] Microbes. Infect. […] The broth microdilution method was used to determine the compound MIC values against C. neoformans.

Series [2] deals with T1, Prp8 intein. In words: Split Renilla luciferase RLuc-Prp8 intein splicing assay. In kind it is biochemical. As to conditions: split Renilla luciferase RLuc-Prp8 intein splicing. The procedure:
Split luciferase Prp8 intein splicing assay—The split RLuc-Prp8 fusion protein was carried out and monitored using a Veritas luminometer, as described previously.
Split luciferase RLuc-Prp8 and NnLuc-Prp8 intein splicing assays—The split RLuc-Prp8 intein splicing assay was carried out and monitored using a Veritas luminometer, as described previously. […] Microbes. Infect. […] For NnLuc-Prp8 intein splicing assay, the NnLuc-prp8 is diluted in assay buffer (50 mM Tris, 0.1% BSA, 1 mM EDTA, pH 7.4) and 50 ul is added to each well in 96 well black plates. Test molecules or the solvent was added and incubated for 30 to 60 min. A splicing inducer TCEP (50 ul, 100 μM) is added and incubated for 24 h. Luciferase substrate (Furimazine, 25 ul 1:10,000 diluted) is added and luminescence is read using a luminescence reader. IC50 is calculated using Graphpad prism.

Each structure is given as a SMILES string. In brackets after ≈: the same amount, converted by molar mass.

T1 sequence (E6R027 entry or part of it): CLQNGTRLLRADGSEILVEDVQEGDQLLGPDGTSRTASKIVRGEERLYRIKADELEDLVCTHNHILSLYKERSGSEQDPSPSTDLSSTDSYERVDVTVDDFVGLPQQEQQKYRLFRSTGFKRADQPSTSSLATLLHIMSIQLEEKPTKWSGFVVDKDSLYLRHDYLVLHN

With `O=C(Nc1cc(F)cc(C(F)(F)F)c1)c1ncsc1S(=O)(=O)c1ccc(Cl)cc1` [JMX0522, 5-((4-Chlorophenyl)sulfonyl)-N-(3-fluoro-5-(trifluoromethyl)phenyl) thiazole-4-carboxamide], in “in vitro”, the cytotoxic concentration (CC50) at 48 h came to 97.7 µM. In addition, the 50% inhibitory concentration (IC50) at Prp8 intein [1] came out at 23.5 µM; against Prp8 intein [2], 20.2 µM. In addition, the MIC in the series on C. neoformans H99 strain came to 100 µM (≈ 46.5 µg/mL).
The like results for `O=C(Nc1ccc(C(F)(F)F)nc1)c1ncsc1S(=O)(=O)c1ccc(Cl)cc1` [JMX0523, 5-((4-Chlorophenyl)sulfonyl)-N-(6-(trifluoromethyl)pyridin-3-yl) thiazole-4-carboxamide] were, in that order, 114 µM, above 50 µM, 37.1 µM and above 100 µM.
Consider `O=C(Nc1ccc(F)nc1)c1ncsc1S(=O)(=O)c1ccc(Cl)cc1` [JMX0524, 5-((4-Chlorophenyl)sulfonyl)-N-(6-fluoropyridin-3-yl)thiazole-4-carboxamide], for which the CC50 at 48 h in “in vitro” came out at 174 µM. For the same compound, the IC50 at Prp8 intein [1] is above 50 µM; on Prp8 intein [2], 7.8 µM. Besides, the minimum inhibitory concentration (MIC) with C. neoformans H99 strain is above 100 µM.
Regarding `O=C(Nc1ccc(F)cc1)c1ncsc1S(=O)(=O)c1ccc(Cl)cc1` [JMX0525, 5-((4-Chlorophenyl)sulfonyl)-N-(4-fluorophenyl)thiazole-4-carboxamide], the midpoint of cytotoxicity in “in vitro”, the CC50 at 48 h, lay at 309 µM. The IC50 at Prp8 intein [1] is above 50 µM; against Prp8 intein [2], 6.4 µM. Moreover, in the series on C. neoformans H99 strain, the minimum inhibitory concentration (MIC) was above 100 µM.
Take `O=C(NCc1ccc(F)cc1)c1ncsc1S(=O)(=O)c1ccc(Cl)cc1` [JMX0541, 5-((4-Chlorophenyl)sulfonyl)-N-(4-fluorobenzyl)thiazole-4-carboxamide]: the cytotoxic concentration (CC50) at 48 h in the series “in vitro” is 114 µM. The concentration for half-maximal inhibition (IC50) against Prp8 intein [1] was above 50 µM; against Prp8 intein [2], 10.6 µM. For the same compound, the MIC in the series with C. neoformans H99 strain amounted to 100 µM (≈ 41.1 µg/mL).
With `O=C(Nc1ccc(F)cc1)c1nnsc1Sc1ccc(Cl)cc1` [JMX0564, 5-((4-Chlorophenyl)thio)-N-(4-fluorophenyl)-1,2,3-thiadiazole-4-carboxamide], the cytotoxic concentration (CC50) at 48 h in “in vitro” was 418 µM. For the same compound, the figures for the IC50 against Prp8 intein [1] and at Prp8 intein [2] were 55.7 µM and 15.8 µM, respectively. Moreover, in the series with C. neoformans H99 strain, the MIC was above 100 µM.
With `O=C(Nc1ccc(F)cc1)c1nnsc1[S+]([O-])c1ccc(Cl)cc1` (centres unmarked) [JMX0565-1, 5-((4-Chlorophenyl)sulfinyl)-N-(4-fluorophenyl)-1,2,3-thiadiazole-4-carboxamide], it took 32.5 µM to reach half-maximal cytotoxicity in “in vitro” (CC50 at 48 h). In addition, the IC50 was determined as 7.1 µM on Prp8 intein [1] and 16.6 µM against Prp8 intein [2]. In the series on C. neoformans H99 strain, the MIC was 0.097 µM (≈ 0.037 µg/mL).
On to `O=C(Nc1ccc(F)cc1F)c1nnsc1Sc1ccc(Cl)cc1` [JMX0569, 5-((4-Chlorophenyl)thio)-N-(2,4-difluorophenyl)-1,2,3-thiadiazole-4-carboxamide], for which the 50% cytotoxic concentration (CC50) at 48 h in “in vitro” is 186 µM. Moreover, the results for the IC50 against Prp8 intein [1] and against Prp8 intein [2] were above 50 µM and 36.2 µM, respectively. Besides, the minimal inhibitory concentration (MIC) in the series on C. neoformans H99 strain was above 100 µM.
`O=C(Nc1ccc(Cl)cc1)c1nnsc1Sc1ccc(Cl)cc1` [JMX0570, N-(4-Chlorophenyl)-5-((4-chlorophenyl)thio)-1,2,3-thiadiazole-4-carboxamide] yielded a CC50 at 48 h in “in vitro” of 83.7 µM. Further, the IC50 against Prp8 intein [1] stood at 38.7 µM; against Prp8 intein [2], 21.6 µM. For the same compound, in the series on C. neoformans H99 strain, the MIC was above 100 µM.
Take `O=C(Nc1ccc(Cl)cc1)c1nnsc1S(=O)(=O)c1ccc(Cl)cc1` [JMX0571, N-(4-Chlorophenyl)-5-((4-chlorophenyl)sulfonyl)-1,2,3-thiadiazole-4-carboxamide]: the midpoint of cytotoxicity in the series “in vitro”, the CC50 at 48 h, lay at 33.8 µM. Further, the IC50 against Prp8 intein [1] is 1.8 µM; against Prp8 intein [2] it was 12.6 µM. In addition, the minimal inhibitory concentration (MIC) in the series on C. neoformans H99 strain was 0.39 µM (≈ 0.162 µg/mL).
For `O=C(NCc1ccc(F)cc1)c1nnsc1Sc1ccc(Cl)cc1` [JMX0573, 5-((4-Chlorophenyl)thio)-N-(4-fluorobenzyl)-1,2,3-thiadiazole-4-carboxamide] the same measures were 282 µM, above 50 µM, 5.5 µM and above 100 µM.
For the compound `O=C(NCc1ccc(F)cc1)c1nnsc1S(=O)(=O)c1ccc(Cl)cc1` [JMX0574, 5-((4-Chlorophenyl)sulfonyl)-N-(4-fluorobenzyl)-1,2,3-thiadiazole-4-carboxamide], the CC50 at 48 h in “in vitro” was 21.5 µM. Further, the IC50 on Prp8 intein [1] stood at 1.6 µM; on Prp8 intein [2] it was 59.1 µM. Besides, the minimum inhibitory concentration (MIC) with C. neoformans H99 strain is 0.78 µM (≈ 0.321 µg/mL).
The like results for `O=C(Nc1ccc(C(F)(F)F)cc1)c1nnsc1Sc1ccc(Cl)cc1` [JMX0575, 5-((4-Chlorophenyl)thio)-N-(4-(trifluoromethyl)phenyl)-1,2,3-thiadiazole-4-carboxamide] were, in that order, 271 µM, above 50 µM, 21.5 µM and above 100 µM.
Consider `O=C(Nc1ccc(C(F)(F)F)cc1)c1nnsc1S(=O)(=O)c1ccc(Cl)cc1` [JMX0576, 5-((4-Chlorophenyl)sulfonyl)-N-(4-(trifluoromethyl)phenyl)-1,2,3-thiadiazole-4-carboxamide], for which the CC50 at 48 h in “in vitro” was 40.3 µM. The half-maximal inhibitory concentration (IC50) against Prp8 intein [1] is 0.9 µM; against Prp8 intein [2], 11.9 µM. The MIC in the series on C. neoformans H99 strain stood at 0.78 µM (≈ 0.349 µg/mL).
Take `O=C(Nc1ccc(F)cc1)c1nnc(Sc2ccc(Cl)cc2)s1` [JMX0584, 5-((4-chlorophenyl)thio)-N-(4-fluorophenyl)-1,3,4-thiadiazole-2-carboxamide]: the CC50 at 48 h in “in vitro” was above 150 µM. The IC50 is above 50 µM at Prp8 intein [1] and 11 µM on Prp8 intein [2]. For the same compound, in the series on C. neoformans H99 strain, the minimum inhibitory concentration (MIC) is above 100 µM.
The like results for `O=C(Nc1ccc(F)cc1)c1nnc(S(=O)(=O)c2ccc(Cl)cc2)s1` [JMX0585-1, 5-((4-chlorophenyl)sulfonyl)-N-(4-fluorophenyl)-1,3,4-thiadiazole-2-carboxamide] were, in that order, 26 µM, 5.7 µM, 19.4 µM and 3.12 µM (≈ 1.24 µg/mL).
Regarding `O=C(Nc1ccc(F)cc1)c1nnc([S+]([O-])c2ccc(Cl)cc2)s1` (centres unmarked) [JMX0585-2, 5-((4-chlorophenyl)sulfinyl)-N-(4-fluorophenyl)-1,3,4-thiadiazole-2-carboxamide], the CC50 at 48 h in the series “in vitro” turned out to be 28.5 µM. Further, the concentration for half-maximal inhibition (IC50) is 4.5 µM on Prp8 intein [1] and 20.9 µM against Prp8 intein [2]. Moreover, the minimal inhibitory concentration (MIC) in the series on C. neoformans H99 strain was determined as 0.097 µM (≈ 0.037 µg/mL).
